Experiment [1] has as its system cholesterol level in the serum. Put plainly: effect of reducing a lipid level in blood (serum cholesterol) in hamsters fed diet containing 1% cholesterol and 0.5% cholic acid. The format is in vivo, golden hamster (male). The settings on record: percent inhibition of serum cholesterol relative to control, 1 mg/10 ml water/kg orally once a day, blood taken on fifth day 3 h after final administration; for inhibition in vivo at 1 mg/kg: Mesocricetus auratus, po, once a day, read-out: Reduction of Cholesterol in Blood. How it is done: The effect of reducing a lipid level in blood by the action of the compounds according to the present invention was determined as follows:
Male golden hamsters weighing from 80 to 100 g were randomly divided into groups. The hamsters were first fed standard laboratory diets (solid feed MF-1 for mouse/rat/hamster, manufactured by Oriental yeast Industries, KK) for 3 days. Then, they were fed the experimental diet containing 1% cholesterol and 0.5% cholic acid ad libitum. At the same time, the compounds of the invention formulated in a shown dose (1 mg/10 ml water/kg) were administrated to the hamsters orally once a day at a determined time. Water was administrated orally to the hamsters of control group in an amount of 10 ml per 1 kg of body weight. On fifth day of administrating the compounds, the hamsters were anesthetized with nembutal (Nembutal injection, manufactured by Dainabbot) three hours after the final administration of the test compound, and a blood sample was taken from abdominal cava. The serum was separated from the sample by centrifuging.
The cholesterol level in the serum was determined by using a blood cholesterol measuring kit, Determina-TC5 manufactured by Kyowa Medix Co. The results are represented by percent inhibition (%) of cholesterol level in serum relative to that of the control group, and shown in the following Table 20.

A further experiment deals with T1, ACAT (Mesocricetus auratus, UniProt A0A1U8BU94).
T1 construct: each tissue specimen containing hamster liver microsome; from tissue; host or cells: hamster liver microsomes
T1 sequence (A0A1U8BU94 1-521): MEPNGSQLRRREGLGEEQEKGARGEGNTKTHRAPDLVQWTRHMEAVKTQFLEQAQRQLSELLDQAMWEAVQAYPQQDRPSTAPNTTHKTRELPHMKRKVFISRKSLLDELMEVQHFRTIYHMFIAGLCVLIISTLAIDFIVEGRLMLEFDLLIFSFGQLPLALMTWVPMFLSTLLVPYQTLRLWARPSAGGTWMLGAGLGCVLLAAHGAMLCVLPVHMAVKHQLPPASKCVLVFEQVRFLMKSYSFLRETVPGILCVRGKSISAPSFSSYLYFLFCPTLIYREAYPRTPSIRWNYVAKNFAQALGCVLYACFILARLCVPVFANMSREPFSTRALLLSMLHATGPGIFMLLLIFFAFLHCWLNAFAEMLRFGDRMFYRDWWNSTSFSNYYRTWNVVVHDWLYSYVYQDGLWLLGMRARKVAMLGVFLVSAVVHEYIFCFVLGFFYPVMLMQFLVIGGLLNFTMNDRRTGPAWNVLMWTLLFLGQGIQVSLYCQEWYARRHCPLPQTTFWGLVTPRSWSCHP
Put plainly: ACAT inhibitory action (cholesteryl oleate formation from radio-labelled oleoyl coenzyme A, liver microsome). Format: biochemical. The settings on record: hamster liver microsome; inhibition of cholesteryl oleate formation. The procedure:
The ACAT inhibitory action of the compounds of this invention was determined by the following method.
ACAT activity was determined by measuring the amount of ratio-active cholesteryl oleate formed from radio-labelled oleoyl coenzyme A in each tissue specimen containing hamster liver microsome. The reduction rates (%) in the amount of formation of cholesteryl oleate by the administration of the test compound in various concentrations (μM) as compared with as compared with the amount of formation in the control group to which no test compound was administrated were measured. The ACAT inhibitory action was evaluated by IC50, the concentration of the test compound necessary for inhibiting the activity of the enzyme by 50%, obtained from the reduction rates.
A general note: Liver microsomes are vesicles of endoplasmic reticulum, rich in cytochrome P450 enzymes.

Experiment [2] concerns cholesterol level in the serum. Put plainly: effect of reducing a lipid level in blood (serum cholesterol) in hamsters fed diet containing 1% cholesterol and 0.5% cholic acid. The format is in vivo, golden hamster (male). The following applies: Mesocricetus auratus, po, 120 h, comparison compound; dose of 5 mg/kg p.o.; read-out: Reduction of Cholesterol in Blood.

These results are taken from US5202351A, “1-phenylalkyl-3-phenylurea derivative” (Mitsubishi Kasei Corporation, priority 1990, dated 1993).

As usually defined, the IC50 is the point on the concentration scale where inhibition reaches its midpoint. A higher IC50 goes with lower potency.

With `CCCCC(CNC(=O)Nc1c(C(C)C)cccc1C(C)C)c1ccc2c(c1)OCO2` (single isomer, unassigned) [Example 62], in experiment [1], the “Reduction of Cholesterol in Blood” value is on record as 33%.
`CCCCCC(CNC(=O)Nc1c(C(C)C)cccc1C(C)C)c1cccc2c1OCO2` (single isomer, unassigned) [Example 63]: the “Reduction of Cholesterol in Blood” value in experiment [1] worked out at 56%. Half-maximal inhibition against ACAT (IC50) required 5 nM.
The corresponding values for `CCCCCC(CNC(=O)Nc1c(C(C)C)cccc1C(C)C)c1cccc2c1OCO2` (single isomer, unassigned) [Example 64] are 27% and 12 nM.
With `CCCCC(CNC(=O)Nc1c(C(C)C)cccc1C(C)C)c1cccc2c1CCCC2` (single isomer, unassigned) [Example 65], in experiment [1], the inhibition in vivo at 1 mg/kg came to 44%. Also, at ACAT, the IC50 was found to be 12 nM.
For the compound `CCCCC(CNC(=O)Nc1c(C(C)C)cccc1C(C)C)c1cccc2c1CCCC2` (single isomer, unassigned) [Example 66], the “Reduction of Cholesterol in Blood” value in experiment [1] amounted to 40%. For the same compound, on ACAT, 28 nM corresponded to half-maximal inhibition (IC50).
For `CCCCC(CNC(=O)Nc1c(C(C)C)cccc1C(C)C)c1ccc2c(c1)OCO2` (single isomer, unassigned; (+)) [Example 61, (+)-1-(2-(3,4-methylenedioxyphenyl)-hexyl)-3-(2,6-diisopropylphenyl)urea], in experiment [1], the inhibition in vivo at 1 mg/kg was determined as 45%.
`CC(C)c1cccc(C(C)C)c1NC(=O)NCC(c1ccccc1)C(C)(C)C` (stereo not shown) [Comparison, 1-(3,3-dimethyl-2-phenylbutyl)-3-(2,6-diisopropylphenyl)urea]: in experiment [2], the inhibition in vivo at 5 mg/kg amounted to 5%.
`CCCCCC(CNC(=O)Nc1c(C(C)C)cccc1C(C)C)c1cccc2c1OCO2` (stereo not shown) [Example 1, 1-(2-(2,3-methylenedioxyphenyl)heptyl)-3-(2,6-diisopropylphenyl)urea]: the inhibition in vivo at 1 mg/kg in experiment [1] is 34%.
In turn, `CCC(CNC(=O)Nc1c(C(C)C)cccc1C(C)C)c1cccc2c1OCO2` (stereo not shown) [Example 3] displayed an IC50 on ACAT of 85 nM.
On the same count and under the same terms, then `CC(C)c1cccc(C(C)C)c1NC(=O)NCC(c1cccc2c1OCO2)C(C)C` (stereo not shown) [Example 4], with 28 nM.
Still for that read-out and setting: then `CCCC(CNC(=O)Nc1c(C(C)C)cccc1C(C)C)c1cccc2c1OCO2` (stereo not shown) [Example 5], with 56 nM.
In the case of `CCCCC(CNC(=O)Nc1c(C(C)C)cccc1C(C)C)c1cccc2c1OCO2` (stereo not shown) [Example 6], the inhibition in vivo at 1 mg/kg in experiment [1] worked out at 40%.
As to `CCCCCCC(CNC(=O)Nc1c(C(C)C)cccc1C(C)C)c1cccc2c1OCO2` (stereo not shown) [Example 8], the midpoint of inhibition against ACAT, the IC50, lay at 11 nM.
Still for that read-out and setting: the figure for `CCCCCCCC(CNC(=O)Nc1c(C(C)C)cccc1C(C)C)c1cccc2c1OCO2` (stereo not shown) [Example 9] is 86 nM.
For `CCC(CC)(CNC(=O)Nc1c(C(C)C)cccc1C(C)C)c1cccc2c1OCO2` [Example 11], the inhibition in vivo at 1 mg/kg in experiment [1] worked out at 31%. Also, half-maximal inhibition on ACAT (IC50) required 32 nM.
For the compound `CC(C)c1cccc(C(C)C)c1NC(=O)NCC1(c2cccc3c2OCO3)CCCC1` [Example 12], in experiment [1], the inhibition in vivo at 1 mg/kg was found to be 10%.
On to `CC(C)c1cccc(C(C)C)c1NC(=O)NCC1(c2cccc3c2OCO3)CCCCC1` [Example 13], for which, in experiment [1], the inhibition in vivo at 1 mg/kg is 19%.
Same read-out and setting: the figure for `CCCCC(CNC(=O)Nc1c(C(C)C)cccc1C(C)C)c1cccc2c1OCCO2` (stereo not shown) [Example 14] is 30%; for `CCCC(CNC(=O)Nc1c(C(C)C)cccc1C(C)C)c1ccc2c(c1)OCO2` (stereo not shown) [Example 16] it is 34%.
For the compound `CCCCC(CNC(=O)Nc1c(C(C)C)cccc1C(C)C)c1ccc2c(c1)OCO2` (stereo not shown) [Example 17], the inhibition in vivo at 1 mg/kg in experiment [1] worked out at 34%. On ACAT, this compound had an IC50 of 9 nM.
As to `CCCCCC(CNC(=O)Nc1c(C(C)C)cccc1C(C)C)c1ccc2c(c1)OCO2` (stereo not shown) [Example 18], the inhibition in vivo at 1 mg/kg in experiment [1] came out at 33%.
On to `CCCCCCC(CNC(=O)Nc1c(C(C)C)cccc1C(C)C)c1ccc2c(c1)OCO2` (stereo not shown) [Example 19], for which, in experiment [1], the inhibition in vivo at 1 mg/kg was found to be 23%.
On the same count and under the same terms, then `CC(C)CCCC(CNC(=O)Nc1c(C(C)C)cccc1C(C)C)c1ccc2c(c1)OCO2` (stereo not shown) [Example 20], with 46%.
Consider `CCCCC(CNC(=O)Nc1c(C(C)C)cccc1C(C)C)c1ccc2c(c1)OCCO2` (stereo not shown) [Example 23], for which the inhibition in vivo at 1 mg/kg in experiment [1] came out at 39%. The compound also gave a half-inhibitory concentration (IC50) at ACAT of 13 nM.
Regarding `CCCCCC(CNC(=O)Nc1c(C(C)C)cccc1C(C)C)c1ccc2c(c1)OCCO2` (stereo not shown) [Example 24], the inhibition in vivo at 1 mg/kg in experiment [1] was 41%.
Same read-out and setting: then `CCCCCCC(CNC(=O)Nc1c(C(C)C)cccc1C(C)C)c1ccc2c(c1)OCCO2` (stereo not shown) [Example 25], with 39%; and `CCCCC(CNC(=O)Nc1c(C(C)C)cccc1C(C)C)c1ccc2c(c1)OCCCO2` (stereo not shown) [Example 26], with 40%.
In the case of `CCCCCC(C)(CNC(=O)Nc1c(C(C)C)cccc1C(C)C)c1cccc2c1OCO2` (stereo not shown) [Example 29], the inhibition in vivo at 1 mg/kg in experiment [1] is 61%. This compound gave an IC50 against ACAT of 5 nM.
Consider `CCCC(CCC)(CNC(=O)Nc1c(C(C)C)cccc1C(C)C)c1cccc2c1OCO2` [Example 30], for which the inhibition in vivo at 1 mg/kg in experiment [1] turned out to be 18%.
Still for that read-out and setting: then `CCCCCC(CCCCC)(CNC(=O)Nc1c(C(C)C)cccc1C(C)C)c1cccc2c1OCO2` [Example 31], with 16%.
As to `CCCCCC(CNC(=O)Nc1c(C)cccc1C)c1cccc2c1OCO2` (stereo not shown) [Example 33, 1-(2-(2,3-methylenedioxyphenyl)heptyl)-3-(2,6-dimethylphenyl)urea], the IC50 against ACAT was 38 nM.
At ACAT, `CCCCCC(CNC(=O)Nc1c(Cl)cccc1Cl)c1cccc2c1OCO2` (stereo not shown) [Example 34, 1-(2-(2,3-methylenedioxyphenyl)heptyl)-3-(2,6-dichlorophenyl)urea] registered an IC50 of 34 nM.
On to `CCCCCC(CNC(=O)Nc1c(CC)cccc1CC)c1cccc2c1OCO2` (stereo not shown) [Example 35], for which, on ACAT, 32 nM corresponded to half-maximal inhibition (IC50).
Same read-out and setting: then `CCCCCC(CNC(=O)Nc1c(CC)cccc1C(C)CC)c1cccc2c1OCO2` (stereo not shown) [Example 36], with 26 nM.
Same read-out and setting: then `CCCCCC(CNC(=O)Nc1c(OC)cccc1OC)c1cccc2c1OCO2` (stereo not shown) [Example 48, 1-(2-(2,3-methylenedioxyphenyl)heptyl)-3-(2,6-dimethoxyphenyl)urea], with 20 nM.
As to `CCCCC(CNC(=O)Nc1c(C(C)C)cccc1C(C)C)c1cc(OC)c2c(c1)OCO2` (stereo not shown) [Example 52, 1-(2-(3,4-methylenedioxy-5-methoxyphenyl)hexyl)-3-(2,6-diisopropylphenyl)urea], in experiment [1], the inhibition in vivo at 1 mg/kg was 15%.
Still for that read-out and setting: the figure for `CCCCCC(CNC(=S)Nc1c(C(C)C)cccc1C(C)C)c1cccc2c1OCO2` (stereo not shown) [Example 54, 1-(2-(2,3-methylenedioxyphenyl)heptyl)-3-(2,6-diisopropylphenyl)thiourea] is 21%; for `CCCCC(CNC(=O)Nc1c(C(C)C)cccc1C(C)C)c1cccc2c1CCCC2` (stereo not shown) [Example 55, 1-(2-(2,3-tetramethylenephenyl)hexyl)-3-(2,6-diisopropylphenyl)urea] it is 35%.
For `CCCCCC(CNC(=O)Nc1c(C(C)C)cccc1C(C)C)c1cccc2c1CCCC2` (stereo not shown) [Example 56], in experiment [1], the inhibition in vivo at 1 mg/kg came to 42%. On ACAT, it took 4 nM to reach half-maximal inhibition (IC50).
For `CC(C)CCCC(CNC(=O)Nc1c(C(C)C)cccc1C(C)C)c1cccc2c1CCCC2` (stereo not shown) [Example 57], the inhibition in vivo at 1 mg/kg in experiment [1] worked out at 38%.
